These are literature values, as cited in patent US6419959B1, “Galenic composition containing opioid antagonists” (Klinge Pharma GmbH, priority 1996, dated 2002).

Like-named read-outs stand apart in the source and are kept apart here.

In one data set the test system is patients. Particulars: oral.
Data set [1] has as its system patients with opioid-induced constipation. Particulars: oral.
The test system is the same in data set [2]. Particulars: oral, maximally administered dose 12 mg.
For data set [3] the following is noted: metabolites of naloxone present in the blood.

Regarding `CN1CC[C@]23c4c5ccc(O)c4O[C@H]2[C@@H](O)C=C[C@H]3[C@H]1C5` [morphine], the “patients in whom constipation arises during treatment” value in the data set with patients given morphine is “approximately 85%”.
Take `C=CCN1CC[C@]23c4c5ccc(O)c4O[C@H]2C(=O)CC[C@@]3(O)[C@H]1C5` [naloxone]: the values for the effect on constipation result in the data set with patients (up to 10% naloxone dose with respect to the opioid dose) and with patients (very high dose range 20% to 40% of the opioid dose) were “No effect was determinable” and “neutralization of constipation”, respectively. Moreover, the “neutralisation of the constipating effect of loperamide” value in the data set on healthy probands (intravenously applied, 40 μg/kg/hr in 3 hr) is “could neutralize the constipating effect of loperamide”; in the data set on healthy probands (oral administration of 16 or 32 mg) it was “could neutralize the constipating effect of loperamide”. In data set [1] (doses of up to 16 mg, three patients), the “response to the treatment (neutralisation of constipation)” value is given as “two of the three patients responded”. In addition, in data set [1] (increase in dose of up to 24 mg within 3 hours), the “neutralisation of constipation in the other patient (non-responder)” value is on record as “constipation could not be neutralized”. Further, the “dose-dependent maximal naloxone plasma concentrations” value in data set [1] (plasma level determinations) is “up to 7.9 ng/ml”. The “effect on the gastrointestinal motility” value in data set [2] is given as “not determinable in any of the treated patients”.
With `C=CCN1CC[C@]23c4c5ccc(O[C@@H]6O[C@H](C(=O)O)[C@@H](O)[C@H](O)[C@H]6O)c4O[C@H]2C(=O)CC[C@@]3(O)[C@H]1C5` [naloxone-3-glucuronide], in data set [3], the effectiveness of metabolite entry is reported as “not effective or only weakly effective”.
For the molecule `C=CCN1CC[C@]23c4c5ccc(O)c4O[C@H]2[C@H](O)CC[C@@]3(O)[C@H]1C5` [β-naloxol], in data set [3], the effectiveness of metabolite result is on record as “not effective or only weakly effective”.
On to `C=CCN1CC[C@]23c4c5ccc(O[C@@H]6O[C@H](C(=O)O)[C@@H](O)[C@H](O)[C@H]6O)c4O[C@H]2[C@H](O)CC[C@@]3(O)[C@H]1C5` [β-naloxol-3-glucuronide], for which the effectiveness of metabolite result in data set [3] is “not effective or only weakly effective”.
